In assay [1] the target is Serine/threonine-protein kinase BRSK1 (Homo sapiens) (UniProt Q8TDC3). Description: Binding affinity to wild-type human partial length BRSK1 (M1 to E754 residues) expressed in bacterial expression system assessed as residual binding level at 10 uM by Kinomescan method relative to control.
The target in assay [2] is Serine/threonine-protein kinase 38-like (Homo sapiens) (UniProt Q9Y2H1). Description: Binding affinity to wild-type human partial length NDR2 (N34 to E447 residues) expressed in bacterial expression system assessed as residual binding level at 10 uM by Kinomescan method relative to control.
In assay [3] the target is Mitogen-activated protein kinase 10 (Homo sapiens) (UniProt P53779). Put plainly: Binding affinity to wild-type human partial length JNK3 (V28 to Q422 residues) expressed in mammalian expression system assessed as residual binding level at 10 uM by Kinomescan method relative to control.
Assay [4] addresses Dual specificity tyrosine-phosphorylation-regulated kinase 2 (Homo sapiens) (UniProt Q92630). Description: Binding affinity to wild-type human full length DYRK2 (M1 to S528 residues) expressed in mammalian expression system assessed as residual binding level at 10 uM by Kinomescan method relative to control.
Assay [5] concerns the target Mitogen-activated protein kinase kinase kinase 9 (Homo sapiens) (UniProt P80192). Description: Binding affinity to wild-type human partial length MLK1 (V88 to W426 residues) expressed in bacterial expression system assessed as residual binding level at 10 uM by Kinomescan method relative to control.
Assay [6] deals with Fibroblast growth factor receptor 4 (Homo sapiens) (UniProt P22455). Description: Binding affinity to wild-type human partial length FGFR4 (G402 to E713 residues) expressed in bacterial expression system assessed as residual binding level at 10 uM by Kinomescan method relative to control.
In assay [7] the target is MAP kinase-activated protein kinase 5 (Homo sapiens) (UniProt Q8IW41). Put plainly: Binding affinity to wild-type human partial length MAPKAPK5 (M1 to D322 residues) expressed in mammalian expression system assessed as residual binding level at 10 uM by Kinomescan method relative to control.
Assay [8] addresses Interleukin-1 receptor-associated kinase 4 (Homo sapiens) (UniProt Q9NWZ3). Description: Binding affinity to wild-type human partial length IRAK4 (M1 to S460 residues) expressed in mammalian expression system assessed as residual binding level at 10 uM by Kinomescan method relative to control.
Assay [9] deals with Mitogen-activated protein kinase kinase kinase 1 (Homo sapiens) (UniProt Q13233). Description: Binding affinity to wild-type human partial length MAP3K1 (L1202 to W1512 residues) expressed in mammalian expression system assessed as residual binding level at 10 uM by Kinomescan method relative to control.
Assay [10] has as its target Serine/threonine-protein kinase DCLK2 (Homo sapiens) (UniProt Q8N568). Put plainly: Binding affinity to wild-type human partial length DCAMKL2 (K273 to V664 residues) expressed in bacterial expression system assessed as residual binding level at 10 uM by Kinomescan method relative to control.
For assay [11], the target named is Serine/threonine-protein kinase Nek1 (Homo sapiens) (UniProt Q96PY6). Description: Binding affinity to wild-type human partial length NEK1 (M1 to K278 residues) expressed in bacterial expression system assessed as residual binding level at 10 uM by Kinomescan method relative to control.
Assay [12] has as its target Dual specificity mitogen-activated protein kinase kinase 2 (Homo sapiens) (UniProt P36507). Put plainly: Binding affinity to wild-type human full length MEK2 (M1 to V400 residues) expressed in mammalian expression system assessed as residual binding level at 10 uM by Kinomescan method relative to control.
Assay [13] has as its target Serine/threonine-protein kinase PAK 1 (Homo sapiens) (UniProt Q13153). Put plainly: Binding affinity to wild-type human partial length PAK1 (S149 to H545 residues) expressed in bacterial expression system assessed as residual binding level at 10 uM by Kinomescan method relative to control.
Assay [14] has as its system Phosphatidylinositol 4,5-bisphosphate 3-kinase catalytic subunit alpha isoform (Homo sapiens), P42336 [C420R]. Put plainly: Binding affinity to human partial length PIK3CA C420R mutant (R108 to N1068 residues) expressed in mammalian expression system assessed as residual binding level at 10 uM by Kinomescan method relative to control.
The target of assay [15] is Cyclin-dependent kinase 5/CDK5 activator 1 (Homo sapiens, UniProt Q00535). The format is protein-complex assay.
Description: Inhibition of human recombinant CDK5/p25 using histone H1 as substrate in presence of [gamma-33P]ATP incubated for 30 mins by liquid scintillation counting assay
Assay [16] has as its target Peripheral plasma membrane protein CASK (Homo sapiens) (UniProt O14936). Put plainly: Binding affinity to wild-type human partial length CASK (M1 to H315 residues) expressed in mammalian expression system assessed as residual binding level at 10 uM by Kinomescan method relative to control.
Assay [17] addresses Cyclin-dependent kinase 2 homolog (Plasmodium falciparum (isolate 3D7)) (UniProt P61075). Put plainly: Binding affinity to wild-type Plasmodium falciparum full length PK5 (M1 to N288 residues) expressed in mammalian expression system assessed as residual binding level at 10 uM by Kinomescan method relative to control.
For assay [18], the target named is Serine/threonine-protein kinase MARK2 (Homo sapiens) (UniProt Q7KZI7). Put plainly: Binding affinity to wild-type human partial length MARK2 (M1 to R450 residues) expressed in bacterial expression system assessed as residual binding level at 10 uM by Kinomescan method relative to control.
Assay [19] has as its target Protein-tyrosine kinase 6 (Homo sapiens) (UniProt Q13882). Description: Binding affinity to wild-type human partial length BRK (L166 to T451 residues) expressed in bacterial expression system assessed as residual binding level at 10 uM by Kinomescan method relative to control.
Assay [20] addresses BDNF/NT-3 growth factors receptor (Homo sapiens) (UniProt Q16620). Description: Binding affinity to wild-type human partial length TRKB (Q547 to G838 residues) expressed in mammalian expression system assessed as residual binding level at 10 uM by Kinomescan method relative to control.
Assay [21] has as its target Serine/threonine-protein kinase VRK2 (Homo sapiens) (UniProt Q86Y07). Description: Binding affinity to wild-type human partial length VRK2 (M1 to T336 residues) expressed in mammalian expression system assessed as residual binding level at 10 uM by Kinomescan method relative to control.
For assay [22], the target named is Ribosomal protein S6 kinase alpha-2 (Homo sapiens) (UniProt Q15349). Put plainly: Binding affinity to wild-type human partial length C-terminal RSK3 kinase domain 2 (V403 to K700 residues) expressed in bacterial expression system assessed as residual binding level at 10 uM by Kinomescan method relative to control.
The target of assay [23] is Myosin-IIIb (Homo sapiens) (UniProt Q8WXR4). Put plainly: Binding affinity to wild-type human partial length MYO3B (M1 to D357 residues) expressed in bacterial expression system assessed as residual binding level at 10 uM by Kinomescan method relative to control.
Assay [24] has as its target Serine/threonine-protein kinase ULK3 (Homo sapiens) (UniProt Q6PHR2). Description: Binding affinity to wild-type human partial length ULK3 (M1 to Q290 residues) expressed in mammalian expression system assessed as residual binding level at 10 uM by Kinomescan method relative to control.

Peripheral plasma membrane protein CASK (Homo sapiens), sequence (O14936 whole entry, the tested form may be a part): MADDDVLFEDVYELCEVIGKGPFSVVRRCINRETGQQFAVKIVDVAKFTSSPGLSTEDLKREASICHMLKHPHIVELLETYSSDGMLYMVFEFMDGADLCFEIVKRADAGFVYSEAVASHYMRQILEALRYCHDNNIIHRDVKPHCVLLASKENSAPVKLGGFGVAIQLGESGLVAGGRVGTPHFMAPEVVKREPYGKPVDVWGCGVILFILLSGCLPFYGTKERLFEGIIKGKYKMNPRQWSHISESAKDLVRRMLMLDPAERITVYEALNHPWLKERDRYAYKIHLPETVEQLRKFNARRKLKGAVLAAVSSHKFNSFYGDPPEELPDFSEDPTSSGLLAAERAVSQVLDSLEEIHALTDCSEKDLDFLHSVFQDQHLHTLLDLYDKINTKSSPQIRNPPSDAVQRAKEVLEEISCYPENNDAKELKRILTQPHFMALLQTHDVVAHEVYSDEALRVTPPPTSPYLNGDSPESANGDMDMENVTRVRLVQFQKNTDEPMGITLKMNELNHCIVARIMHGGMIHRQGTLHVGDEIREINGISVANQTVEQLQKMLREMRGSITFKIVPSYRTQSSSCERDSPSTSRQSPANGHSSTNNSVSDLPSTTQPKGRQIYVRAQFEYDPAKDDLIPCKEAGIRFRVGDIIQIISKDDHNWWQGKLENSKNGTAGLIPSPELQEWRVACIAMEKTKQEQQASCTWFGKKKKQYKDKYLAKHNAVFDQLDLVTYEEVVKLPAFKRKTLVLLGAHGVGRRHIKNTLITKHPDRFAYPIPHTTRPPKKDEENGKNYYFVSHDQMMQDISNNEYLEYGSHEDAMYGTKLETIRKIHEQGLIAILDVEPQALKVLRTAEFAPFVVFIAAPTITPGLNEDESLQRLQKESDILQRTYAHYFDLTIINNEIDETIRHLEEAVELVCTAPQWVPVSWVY
BDNF/NT-3 growth factors receptor (Homo sapiens), sequence (Q16620 32-822 limits assumed): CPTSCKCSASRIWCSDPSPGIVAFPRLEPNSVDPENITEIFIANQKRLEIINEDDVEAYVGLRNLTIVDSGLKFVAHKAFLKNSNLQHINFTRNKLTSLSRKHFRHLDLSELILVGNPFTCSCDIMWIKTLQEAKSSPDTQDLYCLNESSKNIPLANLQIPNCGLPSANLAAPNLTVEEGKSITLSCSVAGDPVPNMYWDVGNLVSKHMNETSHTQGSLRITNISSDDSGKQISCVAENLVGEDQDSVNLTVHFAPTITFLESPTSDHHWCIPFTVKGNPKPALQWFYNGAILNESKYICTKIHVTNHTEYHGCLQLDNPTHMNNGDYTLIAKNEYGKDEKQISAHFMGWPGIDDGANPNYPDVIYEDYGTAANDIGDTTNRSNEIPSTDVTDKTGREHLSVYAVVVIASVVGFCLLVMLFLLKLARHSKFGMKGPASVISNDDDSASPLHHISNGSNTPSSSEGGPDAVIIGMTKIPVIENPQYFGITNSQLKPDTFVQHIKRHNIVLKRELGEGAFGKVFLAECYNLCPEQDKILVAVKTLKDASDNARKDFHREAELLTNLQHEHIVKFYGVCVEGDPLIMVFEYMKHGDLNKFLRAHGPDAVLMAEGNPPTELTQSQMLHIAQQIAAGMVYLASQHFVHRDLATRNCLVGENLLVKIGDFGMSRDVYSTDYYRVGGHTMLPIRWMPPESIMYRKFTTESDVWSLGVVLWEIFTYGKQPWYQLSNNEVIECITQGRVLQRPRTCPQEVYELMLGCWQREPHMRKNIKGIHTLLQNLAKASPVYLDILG
Serine/threonine-protein kinase BRSK1 (Homo sapiens), sequence (Q8TDC3 whole entry, the tested form may be a part): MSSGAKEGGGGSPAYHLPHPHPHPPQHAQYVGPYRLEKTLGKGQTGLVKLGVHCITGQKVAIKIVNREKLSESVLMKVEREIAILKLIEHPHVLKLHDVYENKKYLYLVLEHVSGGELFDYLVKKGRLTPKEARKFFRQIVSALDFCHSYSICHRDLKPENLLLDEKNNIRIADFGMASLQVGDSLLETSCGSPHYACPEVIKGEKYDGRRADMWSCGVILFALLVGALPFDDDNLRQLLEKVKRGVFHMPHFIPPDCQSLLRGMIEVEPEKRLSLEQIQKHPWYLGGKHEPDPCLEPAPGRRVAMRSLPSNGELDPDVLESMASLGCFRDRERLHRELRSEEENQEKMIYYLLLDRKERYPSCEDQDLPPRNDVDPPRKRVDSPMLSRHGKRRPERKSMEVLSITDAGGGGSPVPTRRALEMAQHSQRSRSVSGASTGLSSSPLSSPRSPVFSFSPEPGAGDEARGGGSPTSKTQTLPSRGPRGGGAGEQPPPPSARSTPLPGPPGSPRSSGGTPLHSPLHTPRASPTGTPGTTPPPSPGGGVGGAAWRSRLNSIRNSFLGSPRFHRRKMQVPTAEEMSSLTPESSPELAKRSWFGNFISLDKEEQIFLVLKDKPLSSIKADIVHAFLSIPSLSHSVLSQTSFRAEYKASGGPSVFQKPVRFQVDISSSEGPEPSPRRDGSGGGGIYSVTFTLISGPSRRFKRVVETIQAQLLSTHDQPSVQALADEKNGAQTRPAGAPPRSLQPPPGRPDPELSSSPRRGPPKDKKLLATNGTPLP
Mitogen-activated protein kinase kinase kinase 9 (Homo sapiens), sequence (P80192 whole entry, looked up, the tested form may be a part): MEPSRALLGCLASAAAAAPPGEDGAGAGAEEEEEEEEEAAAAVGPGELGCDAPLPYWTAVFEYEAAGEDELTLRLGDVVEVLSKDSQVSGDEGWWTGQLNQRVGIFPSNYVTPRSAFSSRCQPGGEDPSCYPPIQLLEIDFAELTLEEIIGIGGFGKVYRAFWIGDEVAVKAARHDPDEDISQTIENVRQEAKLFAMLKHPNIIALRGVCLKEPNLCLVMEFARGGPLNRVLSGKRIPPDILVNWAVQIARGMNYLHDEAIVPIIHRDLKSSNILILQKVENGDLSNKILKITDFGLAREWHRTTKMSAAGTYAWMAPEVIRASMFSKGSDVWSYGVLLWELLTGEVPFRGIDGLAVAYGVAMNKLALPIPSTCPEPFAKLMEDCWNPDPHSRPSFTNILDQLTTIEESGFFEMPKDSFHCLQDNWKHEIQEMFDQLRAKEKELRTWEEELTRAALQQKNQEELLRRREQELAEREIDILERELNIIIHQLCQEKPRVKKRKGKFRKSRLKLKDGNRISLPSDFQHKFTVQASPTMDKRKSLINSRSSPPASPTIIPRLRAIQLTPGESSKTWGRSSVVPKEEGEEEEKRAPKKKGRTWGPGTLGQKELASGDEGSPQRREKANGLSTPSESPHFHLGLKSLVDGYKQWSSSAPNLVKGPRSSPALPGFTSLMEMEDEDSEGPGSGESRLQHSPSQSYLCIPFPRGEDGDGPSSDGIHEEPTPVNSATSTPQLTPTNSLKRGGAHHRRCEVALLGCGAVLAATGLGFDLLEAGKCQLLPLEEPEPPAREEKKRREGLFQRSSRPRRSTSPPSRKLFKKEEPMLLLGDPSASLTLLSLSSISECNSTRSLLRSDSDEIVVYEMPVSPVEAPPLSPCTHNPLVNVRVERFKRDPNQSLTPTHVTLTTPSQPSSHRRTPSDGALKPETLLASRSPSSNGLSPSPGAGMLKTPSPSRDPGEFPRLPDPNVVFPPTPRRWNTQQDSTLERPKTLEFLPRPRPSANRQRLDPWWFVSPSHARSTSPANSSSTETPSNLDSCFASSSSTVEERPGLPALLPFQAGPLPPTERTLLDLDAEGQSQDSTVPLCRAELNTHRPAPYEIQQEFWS
Serine/threonine-protein kinase PAK 1 (Homo sapiens), sequence (Q13153 whole entry, the tested form may be a part, canonical isoform): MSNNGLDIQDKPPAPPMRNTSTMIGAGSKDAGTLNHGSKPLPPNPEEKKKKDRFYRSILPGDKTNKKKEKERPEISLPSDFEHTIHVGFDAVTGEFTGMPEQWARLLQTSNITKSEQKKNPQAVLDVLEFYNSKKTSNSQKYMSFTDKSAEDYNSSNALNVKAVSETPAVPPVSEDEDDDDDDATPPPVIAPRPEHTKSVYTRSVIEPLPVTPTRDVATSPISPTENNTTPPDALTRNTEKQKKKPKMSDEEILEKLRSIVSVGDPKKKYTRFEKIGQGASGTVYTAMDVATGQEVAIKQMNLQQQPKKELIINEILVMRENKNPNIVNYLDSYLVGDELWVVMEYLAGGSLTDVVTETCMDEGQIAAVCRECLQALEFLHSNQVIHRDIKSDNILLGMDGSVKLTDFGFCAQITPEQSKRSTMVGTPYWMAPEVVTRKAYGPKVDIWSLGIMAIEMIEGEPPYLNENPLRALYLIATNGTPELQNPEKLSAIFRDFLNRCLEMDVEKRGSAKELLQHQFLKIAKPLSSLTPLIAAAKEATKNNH
Ribosomal protein S6 kinase alpha-2 (Homo sapiens), sequence (Q15349 whole entry, the tested form may be a part): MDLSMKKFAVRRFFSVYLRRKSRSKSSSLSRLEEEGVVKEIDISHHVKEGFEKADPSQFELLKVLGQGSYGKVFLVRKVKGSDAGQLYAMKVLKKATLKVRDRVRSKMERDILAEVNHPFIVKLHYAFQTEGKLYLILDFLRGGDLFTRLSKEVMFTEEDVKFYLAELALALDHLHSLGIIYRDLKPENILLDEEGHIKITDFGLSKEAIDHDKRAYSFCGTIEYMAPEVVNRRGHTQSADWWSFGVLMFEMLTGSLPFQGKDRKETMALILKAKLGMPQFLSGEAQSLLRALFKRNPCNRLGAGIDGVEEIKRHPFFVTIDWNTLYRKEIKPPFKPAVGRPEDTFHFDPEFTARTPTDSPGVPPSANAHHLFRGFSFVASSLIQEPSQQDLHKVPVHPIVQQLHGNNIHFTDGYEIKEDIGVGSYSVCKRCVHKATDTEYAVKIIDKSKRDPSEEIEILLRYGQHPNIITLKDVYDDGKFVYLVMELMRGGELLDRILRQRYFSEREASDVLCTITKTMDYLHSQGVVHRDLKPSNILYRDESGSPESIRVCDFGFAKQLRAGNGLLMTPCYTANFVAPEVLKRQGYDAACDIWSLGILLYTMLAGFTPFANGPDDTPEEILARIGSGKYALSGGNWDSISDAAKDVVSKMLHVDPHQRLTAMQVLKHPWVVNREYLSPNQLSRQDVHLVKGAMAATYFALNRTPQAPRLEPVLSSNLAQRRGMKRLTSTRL

By IC50 is commonly meant the concentration at which inhibition is half-maximal. Read a high IC50 as lower potency. As to `O=C(Nc1cc(-c2cn(CCNc3c4c(nc5ccccc35)CCCC4)nn2)ccn1)Nc1cccc2c1C1CCCCN1C2=O` (racemic), the Activity in assay [1] was determined as 66%; in assay [2], 99%; in assay [3] it was 1.3%; in assay [4], 53%; in assay [5], 38%; in assay [6], 100%. Besides, the Activity was 42% in [7]; 93% in assay [8]; 100% in assay [9]; 90% in assay [10]; 80% in [11]; 11% in assay [12]. The Activity stood at 88% in assay [13]; 72% in assay [14]; 65% in assay [16]; 100% in assay [17]; 46% in assay [18]; 90% in assay [19]. Also, the Activity in assay [20] was 17%; in [21], 15%; in assay [22], 74%; in assay [23] it was 100%; in assay [24], 43%. The molecule also came in with a concentration for half-maximal inhibition (IC50) in assay [15] of 800 nM.

The values above are taken from ChEMBL document CHEMBL4390652, “Design, biological evaluation and X-ray crystallography of nanomolar multifunctional ligands targeting simultaneously acetylcholinesterase and glycogen synthase kinase-3” (Eur J Med Chem, 2019).
